Experimental data reported in patent US20090182003A1, “Methods and Compositions for Treatment Cell Proliferative Disorders” (President and Fellows of Harvard College, priority 2006, published 2009).

Legend:
human p70S6K = human p70S6K (Homo sapiens, UniProt P23443); assay: Kinase panel screen, p70S6K; type: biochemical; settings: 10 or 100 μM ATP; 0.01-100 μM resveratrol
PI3K = assay: Kinase panel screen, PI3K; settings: concentrations up to 20 micromolar
NLK = molecular target: T1, NLK (Homo sapiens, UniProt Q9UBE8); assay: Kinase panel screen, NLK; type: biochemical; settings: 10 μM ATP; 0.01-100 μM resveratrol
T1 sequence (Q9UBE8 1-527): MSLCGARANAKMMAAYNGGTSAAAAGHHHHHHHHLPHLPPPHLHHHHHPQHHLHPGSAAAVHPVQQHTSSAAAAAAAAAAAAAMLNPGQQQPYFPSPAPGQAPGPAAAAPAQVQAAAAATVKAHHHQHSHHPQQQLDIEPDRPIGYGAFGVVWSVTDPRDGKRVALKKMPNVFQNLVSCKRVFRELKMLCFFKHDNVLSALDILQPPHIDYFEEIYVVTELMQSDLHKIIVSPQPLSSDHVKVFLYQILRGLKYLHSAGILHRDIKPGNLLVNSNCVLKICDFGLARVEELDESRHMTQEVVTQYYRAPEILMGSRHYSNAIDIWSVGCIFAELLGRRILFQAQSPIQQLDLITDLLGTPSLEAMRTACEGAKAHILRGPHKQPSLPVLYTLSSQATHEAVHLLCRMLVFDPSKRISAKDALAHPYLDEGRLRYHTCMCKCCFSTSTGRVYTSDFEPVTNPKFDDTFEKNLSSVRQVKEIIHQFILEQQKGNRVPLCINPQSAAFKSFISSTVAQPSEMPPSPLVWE

FL5.12 cells = assay: Growth inhibition of hematopoietic cell line FL5.12; type: cell-based; settings: 0.1, 1, 10 and 100 μM, 24 hours, in the presence of IL-3, Coulter cell count
Method: Hematopoietic cell line FL5.12 cells were seed at equal density and grown in the presence of IL-3, a growth factor. Cells were then treated for 24 hours with 0.1, 1, 10 and 100 μM resveratrol. Cells were counted with a Coulter particle counter to determine cell inhibition by resveratrol.

PKC = assay: Kinase panel screen, PKC; settings: concentration of 20 micromolar
Src = Src (Homo sapiens, UniProt P12931); assay: Kinase panel screen, Src; type: biochemical; settings: concentration of 20 micromolar
human JAK2 = human JAK2 (Homo sapiens, UniProt O60674); assay: Kinase panel screen, JAK2; type: biochemical; settings: kinase reaction with 10 or 100 μM ATP
human pim-2 = human pim-2 (Homo sapiens, UniProt Q9P1W9); assay: Kinase panel screen, Pim-2; type: biochemical; settings: kinase reaction with 10 or 100 μM ATP
Rsk2 = Rsk2 (Homo sapiens, UniProt P51812); assay: Kinase panel screen, Rsk2; type: biochemical; settings: 20 μM resveratrol
Sequence of Rsk2 (P51812 whole entry): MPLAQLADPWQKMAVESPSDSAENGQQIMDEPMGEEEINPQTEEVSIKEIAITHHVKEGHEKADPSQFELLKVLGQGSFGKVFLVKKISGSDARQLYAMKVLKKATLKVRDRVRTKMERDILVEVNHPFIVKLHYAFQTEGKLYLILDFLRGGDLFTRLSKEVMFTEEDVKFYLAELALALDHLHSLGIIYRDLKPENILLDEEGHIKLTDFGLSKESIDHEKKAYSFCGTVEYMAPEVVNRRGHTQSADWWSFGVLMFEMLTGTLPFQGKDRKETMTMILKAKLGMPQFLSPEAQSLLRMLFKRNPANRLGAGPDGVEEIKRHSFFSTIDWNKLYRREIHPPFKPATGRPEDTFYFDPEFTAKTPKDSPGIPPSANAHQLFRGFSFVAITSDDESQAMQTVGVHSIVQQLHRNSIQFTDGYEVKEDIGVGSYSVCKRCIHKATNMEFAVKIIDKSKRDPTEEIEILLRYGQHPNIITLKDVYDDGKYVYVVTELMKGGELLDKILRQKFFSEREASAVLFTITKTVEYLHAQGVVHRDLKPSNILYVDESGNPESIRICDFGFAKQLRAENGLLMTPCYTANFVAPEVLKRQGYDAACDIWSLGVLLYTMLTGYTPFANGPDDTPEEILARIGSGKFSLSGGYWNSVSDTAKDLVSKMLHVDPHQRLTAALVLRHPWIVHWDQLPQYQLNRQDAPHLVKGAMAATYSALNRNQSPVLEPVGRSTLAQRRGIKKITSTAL

Sequence of human p70S6K (P23443 whole entry): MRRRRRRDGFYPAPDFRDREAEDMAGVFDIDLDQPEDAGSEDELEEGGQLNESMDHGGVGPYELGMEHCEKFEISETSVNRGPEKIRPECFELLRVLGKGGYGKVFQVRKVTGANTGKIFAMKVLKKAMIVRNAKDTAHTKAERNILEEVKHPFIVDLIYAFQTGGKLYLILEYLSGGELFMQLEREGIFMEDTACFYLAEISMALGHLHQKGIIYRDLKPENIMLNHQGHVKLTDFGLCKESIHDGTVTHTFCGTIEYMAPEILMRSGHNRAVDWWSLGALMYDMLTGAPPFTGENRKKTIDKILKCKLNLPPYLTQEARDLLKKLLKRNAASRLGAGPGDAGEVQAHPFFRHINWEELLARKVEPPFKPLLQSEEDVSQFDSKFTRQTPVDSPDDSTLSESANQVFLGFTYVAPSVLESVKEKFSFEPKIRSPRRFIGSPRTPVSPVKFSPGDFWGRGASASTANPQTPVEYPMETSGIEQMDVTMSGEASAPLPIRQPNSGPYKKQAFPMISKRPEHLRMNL
Sequence of human JAK2 (O60674 whole entry): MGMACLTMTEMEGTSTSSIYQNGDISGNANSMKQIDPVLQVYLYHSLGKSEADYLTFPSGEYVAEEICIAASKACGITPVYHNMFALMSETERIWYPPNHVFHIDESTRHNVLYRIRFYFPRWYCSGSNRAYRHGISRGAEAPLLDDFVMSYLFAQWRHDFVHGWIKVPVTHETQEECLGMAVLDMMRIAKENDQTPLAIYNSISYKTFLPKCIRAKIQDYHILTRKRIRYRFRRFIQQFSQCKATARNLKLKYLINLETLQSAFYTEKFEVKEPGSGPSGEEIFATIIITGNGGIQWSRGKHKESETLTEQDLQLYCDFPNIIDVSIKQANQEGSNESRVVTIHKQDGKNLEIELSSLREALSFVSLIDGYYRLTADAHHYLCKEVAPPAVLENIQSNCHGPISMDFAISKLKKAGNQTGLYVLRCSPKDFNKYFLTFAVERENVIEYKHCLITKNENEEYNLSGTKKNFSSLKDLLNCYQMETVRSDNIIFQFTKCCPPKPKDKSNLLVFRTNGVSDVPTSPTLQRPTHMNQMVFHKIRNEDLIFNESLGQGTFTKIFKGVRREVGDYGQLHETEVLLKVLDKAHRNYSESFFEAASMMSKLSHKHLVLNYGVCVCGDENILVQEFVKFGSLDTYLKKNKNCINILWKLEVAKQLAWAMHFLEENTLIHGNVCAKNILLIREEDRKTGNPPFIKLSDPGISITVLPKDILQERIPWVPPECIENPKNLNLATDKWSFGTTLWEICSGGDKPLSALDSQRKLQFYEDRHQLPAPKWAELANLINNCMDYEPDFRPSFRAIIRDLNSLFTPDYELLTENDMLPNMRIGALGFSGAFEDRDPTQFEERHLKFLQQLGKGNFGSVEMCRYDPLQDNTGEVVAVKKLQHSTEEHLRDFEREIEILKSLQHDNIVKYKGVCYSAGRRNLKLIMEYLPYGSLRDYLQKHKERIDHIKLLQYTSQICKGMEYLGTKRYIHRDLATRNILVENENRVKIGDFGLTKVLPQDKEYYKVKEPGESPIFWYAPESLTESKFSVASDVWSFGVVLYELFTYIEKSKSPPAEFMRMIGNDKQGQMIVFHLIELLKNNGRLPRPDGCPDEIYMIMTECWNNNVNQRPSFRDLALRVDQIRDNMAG
Sequence of human pim-2 (Q9P1W9 whole entry): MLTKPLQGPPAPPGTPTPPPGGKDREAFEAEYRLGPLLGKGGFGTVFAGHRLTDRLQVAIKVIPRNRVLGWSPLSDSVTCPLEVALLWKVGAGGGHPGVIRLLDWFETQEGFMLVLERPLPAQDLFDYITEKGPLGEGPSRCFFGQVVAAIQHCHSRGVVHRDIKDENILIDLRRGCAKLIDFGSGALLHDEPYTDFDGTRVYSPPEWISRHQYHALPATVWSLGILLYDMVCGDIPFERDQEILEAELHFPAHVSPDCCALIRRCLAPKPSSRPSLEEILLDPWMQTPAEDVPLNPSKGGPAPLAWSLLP
Sequence of Src (P12931 whole entry, species assumed): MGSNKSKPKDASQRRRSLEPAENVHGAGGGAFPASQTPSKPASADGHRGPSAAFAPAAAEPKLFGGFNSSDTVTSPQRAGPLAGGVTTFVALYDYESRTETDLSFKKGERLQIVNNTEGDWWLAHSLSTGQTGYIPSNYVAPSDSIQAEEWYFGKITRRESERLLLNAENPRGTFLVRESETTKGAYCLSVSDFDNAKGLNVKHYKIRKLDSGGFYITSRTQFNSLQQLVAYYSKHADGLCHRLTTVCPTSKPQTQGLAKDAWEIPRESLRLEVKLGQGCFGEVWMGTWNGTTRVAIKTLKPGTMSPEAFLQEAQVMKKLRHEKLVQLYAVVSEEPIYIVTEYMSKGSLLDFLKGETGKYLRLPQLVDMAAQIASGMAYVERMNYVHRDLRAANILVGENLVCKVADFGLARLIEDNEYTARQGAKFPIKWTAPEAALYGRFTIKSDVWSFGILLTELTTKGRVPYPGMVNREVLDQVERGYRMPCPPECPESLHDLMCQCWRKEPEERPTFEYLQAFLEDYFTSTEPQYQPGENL

Oc1ccc(C=Cc2cc(O)cc(O)c2)cc1 [resveratrol, 3,5, 4′-trihydroxystilbene]
Inhibition of p70S6K (in words) (human p70S6K): specific inhibitor
Inhibition of PI3K (in words) (PI3K): no inhibition
Inhibition of NLK (in words) (NLK): specific inhibitor
Inhibition of FL5.12 cell growth (in words) (FL5.12 cells): dose dependent inhibition
Inhibition of PKC (in words) (PKC): either not inhibited or only weakly inhibited
Inhibition of Src (in words) (Src): either not inhibited or only weakly inhibited
IC50 (human JAK2): 1470 nM
IC50 (human pim-2): 1490 nM
inhibition at 20 µM (Rsk2): ~68%
